Source: patent US20170312260A1 (LAUNX BIOMEDICAL CO., LTD., priority 2014, published 2017)
Values joined by “and” are separate entries in the source; they are usually repeats but may differ in a detail not shown here. Equal values may be shown once. Read-outs that look alike come from different tables or passages of the source.

How the values were obtained:
[1] = WST-1 cell viability analysis, HEK293; format: cell-based; details: human
Protocol: (§1) The cell numbers were counted and reseed as 2×10^6 in cell culture plate/flask. Then, the culture medium were added to a volume of 10 ml, and the cells were cultured for 2-3 days. Then, the cells were suspended for loading into 96-well plates. The number of cells was 3000 and the volume of the culture medium was 100 μl each well.
(§2) Removing the original culture medium from 96-well plate. Then add 100 μl of commercially drug at a concentration of 10 μM per well. After 72 hours, add the diluted WST-1 reagent to the well with 100 μl/well, and the diluted WST-1 reagent was acquired from the dilution of 9:1 medium and WST-1 stock reagent. Finally, the total volume of each well was 200 μl/well. Culture the 96-well plate at 37° C. for 30 to 90 minutes. Detecting and calculate the survival rate of each cancer cells with an ELISA reader at OD450 nm.

[2] = system: colorectal cancer cell line HCT116-wt; assay: WST-1 cell viability analysis, HCT116-wt; format: cell-based; details: 72 hours, read-out: viability (survival rate) of HCT116-wt cells
Protocol: as §1, §2

[3] = Animal model test, body weight and health status of mice; format: in vivo, female mice (BALB/cAnN.Cg-Foxn1^nu/CrlNarl); details: for weight: single mice A-C
Protocol: (§3) In this invention, the female mice were (BALB/cAnN.Cg-Foxn1^nu/CrlNarl) purchased from National Laboratory Animal Center (Taiwan)). The weight of the mice were 21±1 g. These mice were subcutaneously injected with gastric cancer cells (AGS) and then put these mice into different cages at random. The drug test experiment was divided into three groups, include “normal control group”, “low dose group (100 mg/kg/day)”, and “high dose group (200 mg/kg/day)”. These mice were then injected test drug intraperitoneally once daily […]. The tumor sizes and body weight were measured twice a week. The tumor sizes were measured and calculated by formula: (L×W^2)/2. L represents the tumor longest length. W represents the tumor shortest diameter.

[4] = system: C-33A (Cervical carcinoma); assay: WST-1 cell viability analysis, C-33A; format: cell-based; details: Homo sapiens, 72 hours, read-out: viability (survival rate) of C-33A cells
Protocol: as §1, §2

[5] = system: H1650 (lung adenocarcinoma); assay: WST-1 cell viability analysis, H1650; format: cell-based; details: Homo sapiens
Protocol: as §1, §2

[6] = system: gastric cancer cells (AGS); assay: Animal model test, subcutaneous tumor in nude mice; format: in vivo, female mice (BALB/cAnN.Cg-Foxn1^nu/CrlNarl); details: for tumor volume growth, average / tumor volume, average: average of mice; for tumor longest length / tumor volume / tumor volume growth / tumor width: single mice A-C
Protocol: Animal Model Test of […] with Dose 100 mg/kg/Day and 200 mg/kg/day
as §3

gastric cancer cells = assay: Summary of cell viability, gastric cancer; format: cell-based; details: 72 hours, summary over the gastric cancer cell lines, read-out: Inhibitory effect, gastric cancer
Protocol: as §1, §2
As a result in the experiments of the present invention.

[7] = system: BCC (basal cell carcinoma); assay: WST-1 cell viability analysis, BCC; format: cell-based; details: 72 hours, read-out: viability (survival rate) of BCC cells
[8] = high dose (200 mg/kg/day) i.p., First measurement, 200 mg/kg/day
[9] = high dose (200 mg/kg/day) i.p., Second measurement, 200 mg/kg/day
[10] = low dose (100 mg/kg/day) i.p., First measurement
[11] = low dose (100 mg/kg/day) i.p., Second measurement, 100 mg/kg/day
[12] = low dose (100 mg/kg/day) i.p., Third measurement, 100 mg/kg/day
[13] = high dose (200 mg/kg/day) i.p., Fifth measurement
[14] = high dose (200 mg/kg/day) i.p., First measurement
[15] = high dose (200 mg/kg/day) i.p., Fourth measurement
[16] = high dose (200 mg/kg/day) i.p., Second measurement
[17] = high dose (200 mg/kg/day) i.p., Third measurement
[18] = low dose (100 mg/kg/day) i.p., Fifth measurement
[19] = low dose (100 mg/kg/day) i.p., First measurement, 100 mg/kg/day
[20] = low dose (100 mg/kg/day) i.p., Fourth measurement
[21] = low dose (100 mg/kg/day) i.p., Second measurement
[22] = low dose (100 mg/kg/day) i.p., Third measurement

With `CC1=C(C(=O)OC(C)C)C(c2cccc([N+](=O)[O-])c2)C(C(=O)OC2CN(C(c3ccccc3)c3ccccc3)C2)=C(N)N1` (centres unmarked) [Azelnidipine] the viability at 72 h, 10 µM ([1]; HEK293 cells (normal kidney cell line), summary (HEK293), read-out: Inhibitory effect, Normal cell: Kidney cell) was 94.2%, the viability at 72 h, 10 µM ([1]; HEK293 normal kidney cells, average of 4 tests, read-out: Average viability of HEK293 cells) was 94.2% and the viability at 10 µM ([2]; run 0602-30 min) was 70.7%. It also gave a viability at 10 µM ([2]; run 0605-10 min) of 146%, a viability at 10 µM ([2]; run 0607-10 min) of 159% and a viability at 10 µM ([2]; run 0609-10 min) of 69.3%. The “health status / death of tested mice during the treatment (in words)” value ([3]; both high and low doses) was “without death”, the weight ([3]; high dose (200 mg/kg/day) i.p., Fifth measurement, 200 mg/kg/day) was 20 g and 21 g and the weight [3, 8] was 20 g and 19.5 g. For the same compound, the weight ([3]; high dose (200 mg/kg/day) i.p., Fourth measurement, 200 mg/kg/day) was 20 g and 21 g, the weight [3, 9] was 19 g and 20 g and the weight ([3]; high dose (200 mg/kg/day) i.p., Third measurement, 200 mg/kg/day) was 20.5 g and 19 g and 20 g. For the same compound, the weight ([3]; low dose (100 mg/kg/day) i.p., Fifth measurement, 100 mg/kg/day) was 20 g and 21 g, the weight [3, 10] was 21 g and the weight ([3]; low dose (100 mg/kg/day) i.p., Fourth measurement, 100 mg/kg/day) was 20 g and 21 g. For the same compound, the weight [3, 11] was 20 g and 19 g, the weight [3, 12] was 19.5 g and 19 g and 18.5 g and the “weight of mice during the experiment (in words)” value ([3]; low dose and high dose) was “did not show a significant decrease”. For the same compound, the viability at 10 µM ([4]; run 0524-10 min) was 142%, the viability at 10 µM ([4]; run 0526-10 min) was 111% and the viability at 10 µM ([4]; run 0529-10 min) was 123%. For the same compound, the viability at 10 µM ([4]; run 0531-10 min) was 117%, the viability at 10 µM ([5]; NCI-H1650, 10 μM, 72 hours, run 1-10 min, read-out: viability (survival rate) of H1650 cells) was 28.8% and the viability at 10 µM ([5]; NCI-H1650, 10 μM, 72 hours, run 2-20 min, read-out: viability (survival rate) of H1650 cells) was 26.5%. It also gave a viability at 10 µM ([5]; NCI-H1650, 10 μM, 72 hours, run 3-20 min, read-out: viability (survival rate) of H1650 cells) of 40.5%, a viability at 10 µM ([5]; NCI-H1650, 10 μM, 72 hours, run 4-20 min, read-out: viability (survival rate) of H1650 cells) of 62.7% and a viability at 10 µM ([5]; NCI-H1650, 72 h, 10 μM, average of 4 tests, read-out: Average viability of H1650 cells) of 39.7%. The “tumor volume growth, average” value [6, 13] was 0 mm^3, the “tumor volume, average” value [6, 13] was 0 mm^3 and the tumor longest length [6, 13] was 0 mm. For the same compound, the tumor volume [6, 13] was 0 mm^3, the tumor volume growth [6, 13] was 0 mm^3 and the tumor width [6, 13] was 0 mm. For the same compound, the “tumor volume growth, average” value [6, 14] was 25.67 mm^3, the “tumor volume, average” value [6, 14] was 25.67 mm^3 and the tumor longest length [6, 8] was 4 mm and 6 mm. The tumor volume [6, 8] was 18 mm^3 and 27 mm^3 and 32 mm^3, the tumor volume growth [6, 8] was 18 mm^3 and 27 mm^3 and 32 mm^3 and the tumor width [6, 8] was 3 mm and 4 mm. The “tumor volume growth, average” value [6, 15] was −50 mm^3, the “tumor volume, average” value [6, 15] was 0 mm^3 and the tumor longest length [6, 15] was 0 mm. For the same compound, the tumor volume [6, 15] was 0 mm^3, the tumor width [6, 15] was 0 mm and the “tumor volume growth, average” value [6, 16] was 57.67 mm^3. For the same compound, the “tumor volume, average” value [6, 16] was 83.33 mm^3, the tumor width [6, 16] was 5 mm and the tumor longest length [6, 9] was 7 mm and 6 mm. The tumor volume [6, 9] was 87.5 mm^3 and 75 mm^3, the tumor volume growth [6, 9] was 69.5 mm^3 and 48 mm^3 and 55.5 mm^3 and the “tumor volume growth, average” value [6, 17] was −33.3333 mm^3. For the same compound, the “tumor volume, average” value [6, 17] was 50 mm^3, the “inhibition of tumor growth, high dose compared with low dose (in words)” value ([6]; high dose, FIG. 3) was “better effect to inhibit tumor growth” and the “tumor volume growth, average” value [6, 18] was 2.667 mm^3. The “tumor volume, average” value [6, 18] was 22 mm^3, the “tumor volume growth, average” value [6, 10] was 176.3333 mm^3 and the “tumor volume, average” value [6, 10] was 176.3333 mm^3. The tumor longest length [6, 19] was 8 mm and 6 mm and 7 mm, the tumor width [6, 19] was 8 mm and 7 mm and 6 mm and the “tumor volume growth, average” value [6, 20] was −88 mm^3. For the same compound, the “tumor volume, average” value [6, 20] was 19.33 mm^3, the “tumor volume growth, average” value [6, 21] was −77.5 mm^3 and the “tumor volume, average” value [6, 21] was 98.83 mm^3. For the same compound, the tumor longest length [6, 11] was 7 mm and 6 mm and 5 mm, the tumor width [6, 11] was 6 mm and 5 mm and the “tumor volume growth, average” value [6, 22] was 0 mm^3. For the same compound, the “tumor volume, average” value [6, 22] was 98.83 mm^3, the tumor volume growth [6, 22] was 0 mm^3 and the tumor longest length [6, 12] was 7 mm and 6 mm and 5 mm. The tumor width [6, 12] was 6 mm and 5 mm, the “inhibition effect on tumor cells (in words)” value ([6]; low dose and high dose, FIG. 2) was “significant inhibition effect” and the “tumor volume (in words)” value ([6]; low dose and high dose, FIG. 3) was “reduce the tumor volume”. For the same compound, the “tumor volume growth (in words)” value ([6]; low dose and high dose, FIG. 3) was “effectively slow down the tumor volume growth”, the viability at 10 µM (gastric cancer cells) was 115% and the viability at 10 µM ([7]; run 0602-30 min) was 77.7%. For the same compound, the viability at 10 µM ([7]; run 0605-10 min) was 127% and the viability at 10 µM ([7]; run 0607-10 min) was 95.7%.
